Data from PubChem BioAssay AID1963863 (Molecular Pharmacology Branch, DTP, NCI, 2024).
pIC50: −log10 of the molar value.

System: 931267-113-T-J1-PDC KRAS spheroid with HUVEC/MSC, viability
Assay: Anticancer human tumor 931267-113-T-J1-PDC patient-derived colon adenocarcinoma cell line growth inhibition [KRAS2]
Settings: for pIC50: curve of first compound; for viability, T/C: stronger effect = lower value
Source text: Multicellular complex tumor spheroid response to RAS pathway inhibitors in combination with a targeted agents in patient-derived cell lines with oncogenic KRAS variants from multiple cancer types
A high-throughput screen of multi-cell type tumor spheroids was designed to identify active combinations of targeted small molecules and KRAS pathway inhibitors. Complex spheroids include a stromal component modeled by human endothelial cells (HUVEC) and fibroblasts modeled by human mesenchymal stem cells (MSCs). The concentration ranges selected for each drug and investigational agent were based upon clinically achievable concentrations if the clinical Cmax of the agent was known.
Compounds. The drugs and investigational agents: BI-3406 (NSC825286), BAY-293 (NSC824723), batoprotafib (TNO155; NSC825523), sotorasib (AMG 510; NSC818433), MRTX1257 (NSC819558), elimusertib (BAY 1895344; NSC800525), molibresib (GSK525762; NSC774829), temuterkib (LY3214996; NSC803410), venetoclax (NSC766270), alisertib (NSC759677), olaparib (NSC753686), talazoparib (NSC767125), erdafitinib (NSC781556), ipatasertib (NSC767898), cabozantinib (NSC761068), nintedanib (NSC756659), abemaciclib (NSC768073), docetaxel (NSC628503), trametinib (NSC758246), and sapanisertib (NSC764658) were obtained from the National Cancer Institute (NCI) Developmental Therapeutics Program Chemical Repository. The FDA-approved anticancer drug set is available from the Developmental Therapeutics Program. […] The stock solutions were prepared in dimethyl sulfoxide (DMSO, Sigma-Aldrich, St. Louis, MO, cat. D2650) at 800-fold the tested concentration and stored at -70 degrees C prior to their use. All drugs and investigational agents were tested over a range starting from a high concentration at or near the clinical Cmax and decreasing in half-log increments. If the clinical Cmax for an agent had not been determined, the highest concentration tested was 10 microM.
Cell Culture. All cells were maintained in an incubator at 37 degrees C and 5% CO2 with 95% humidity. The PDC lines were cultured according to standard operating procedures established by the NCI PDMR (https://pdmr.cancer.gov/sops/default.htm). Briefly, all PDCs were thawed and cultured in Matrigel-coated flasks prepared with a working solution of 1X Ham's F-12 nutrient mix, without supplementation (Invitrogen, Waltham, MA, cat. 11765054), 100 U/mL penicillin-streptomycin (Invitrogen, cat. 15140122), and 2.5% Matrigel (Corning Inc., Corning, NY, cat. 354248) for the first three passages. All PDCs were cultured in complete DMEM/F-12 media containing advanced DMEM/F-12 (Invitrogen, cat. 12634028), 4.9% defined fetal bovine serum, heat inactivated (HyClone Laboratories Inc., Logan, UT, cat. SH30070.03HI), 389 ng/mL hydrocortisone (Sigma-Aldrich, cat. H4001), 9.7 ng/mL human EGF recombinant protein (Invitrogen, cat. PHG0313), 23.4 microg/mL adenine (Sigma-Aldrich, cat. A2786), 97.3 U/mL penicillin-streptomycin (Invitrogen, cat. 15140122), 1.9 mM L-glutamine (Invitrogen, cat. 25030081), and 9.7 microM Y-27632 dihydrochloride (Tocris Bioscience, Bristol, United Kingdom, cat. 1254). The PDCs were cultured in complete DMEM/F12 media without 9.7 microM Y-27632 dihydrochloride for at least two passages prior to the screen. The established cell line HOP-62 was cultured in RPMI 1640 medium, HEPES (Invitrogen, cat. 22400105) with 10% defined fetal bovine serum (HyClone Laboratories Inc., cat. SH30070.03) and 2 mM L-glutamine (Invitrogen, cat. 25030081). The pooled donor HUVEC were cultured in endothelial cell growth medium 2 (PromoCell, Heidelberg, Germany, cat. C-22011) and the hMSC were cultured in mesenchymal stem cell growth medium 2 (PromoCell, cat. C-28009). For all experiments, HUVEC and hMSC were used at passages </=5, while the malignant cell lines were used at passages </=15. […]

[1] = second compound 0.1 µM, first compound 0.0316 µM
[2] = second compound 0.1 µM, first compound 0.1 µM
[3] = second compound 0.1 µM, first compound 0.316 µM
[4] = second compound 0.1 µM, first compound 1 µM
[5] = second compound 0.1 µM, first compound 3.16 µM
[6] = second compound 0.316 µM, first compound 0.0316 µM
[7] = second compound 0.316 µM, first compound 0.1 µM
[8] = second compound 0.316 µM, first compound 0.316 µM
[9] = second compound 0.316 µM, first compound 1 µM
[10] = second compound 0.316 µM, first compound 3.16 µM
[11] = second compound 1 µM, first compound 0.0316 µM
[12] = second compound 1 µM, first compound 0.1 µM
[13] = second compound 1 µM, first compound 0.316 µM
[14] = second compound 1 µM, first compound 1 µM
[15] = second compound 1 µM, first compound 3.16 µM
[16] = second compound 3.16 µM, first compound 0.0316 µM
[17] = second compound 3.16 µM, first compound 0.1 µM
[18] = second compound 3.16 µM, first compound 0.316 µM
[19] = second compound 3.16 µM, first compound 1 µM
[20] = second compound 3.16 µM, first compound 3.16 µM
[21] = second compound 10 µM, first compound 0.0316 µM
[22] = second compound 10 µM, first compound 0.1 µM
[23] = second compound 10 µM, first compound 0.316 µM
[24] = second compound 10 µM, first compound 1 µM
[25] = second compound 10 µM, first compound 3.16 µM
[26] = second compound 0.1 µM, first compound 10 µM
[27] = second compound 0.316 µM, first compound 10 µM
[28] = second compound 1 µM, first compound 10 µM
[29] = second compound 3.16 µM, first compound 10 µM
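Further: compound exposure lasted 7 days before the readout.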
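Wherever viability, T/C is given: 100% = DMSO vehicle control viability.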

SMILES	pIC50 (second compound 0.1 µM)	pIC50 (second compound 0.316 µM)	pIC50 (second compound 1 µM)	pIC50 (second compound 3.16 µM)	viability, T/C [1] [%]	viability, T/C [2] [%]	viability, T/C [3] [%]	viability, T/C [4] [%]	viability, T/C [5] [%]	viability, T/C [6] [%]	viability, T/C [7] [%]	viability, T/C [8] [%]	viability, T/C [9] [%]	viability, T/C [10] [%]	viability, T/C [11] [%]	viability, T/C [12] [%]	viability, T/C [13] [%]	viability, T/C [14] [%]	viability, T/C [15] [%]	viability, T/C [16] [%]	other results
CC(=O)OC12COC1CC(O)C1(C)C(=O)C(O)C3=C(C)C(OC(=O)C(O)C(NC(=O)OC(C)(C)C)c4ccccc4)CC(O)(C(OC(=O)c4ccccc4)C21)C3(C)C (stereo not given) + C=CC(=O)N1CCN(c2nc(=O)n(-c3c(C)ccnc3C(C)C)c3nc(-c4c(O)cccc4F)c(F)cc23)C(C)C1	< 5.50	< 5.50	< 5.50	< 5.50	96.3	83.3	82.9	84.2	102	116	110	77.6	110	119	106	103	81	117	90.6	93.9	pIC50 (second compound 10 µM): < 5.50; viability, T/C (second compound 0.1 µM, first compound 0.01 µM): 93.1%; viability, T/C (second compound 0.316 µM, first compound 0.01 µM): 94.4%; viability, T/C (second compound 1 µM, first compound 0.01 µM): 102%; viability, T/C (second compound 3.16 µM, first compound 0.01 µM): 103%; viability, T/C [17]: 91.1%; viability, T/C [18]: 96.8%; viability, T/C [19]: 99.6%; viability, T/C [20]: 113%; viability, T/C (second compound 10 µM, first compound 0.01 µM): 87.1%; viability, T/C [21]: 116%; viability, T/C [22]: 98.7%; viability, T/C [23]: 110%; viability, T/C [24]: 116%; viability, T/C [25]: 113%
COc1cc(Nc2ncc3c(n2)-c2ccc(Cl)cc2C(c2c(F)cccc2OC)=NC3)ccc1C(=O)O + C=CC(=O)N1CCN(c2nc(OCC3CCCN3C)nc3c2CCN(c2cccc4cccc(C)c24)C3)CC1CC#N	< 5.00	< 5.00	5.30	> 7.50	106	89.7	85.6	88	68.6	93.5	91.8	91.7	55.6	70	92.6	60.3	66.4	64.1	66	0.22	pIC50 (second compound 0.0316 µM): < 5.00; viability, T/C (second compound 0.0316 µM, first compound 0.0316 µM): 87.9%; viability, T/C (second compound 0.0316 µM, first compound 0.1 µM): 89.5%; viability, T/C (second compound 0.0316 µM, first compound 0.316 µM): 93.8%; viability, T/C (second compound 0.0316 µM, first compound 1 µM): 75.6%; viability, T/C (second compound 0.0316 µM, first compound 3.16 µM): 95.8%; viability, T/C (second compound 0.0316 µM, first compound 10 µM): 68.1%; viability, T/C [26]: 58.3%; viability, T/C [27]: 63%; viability, T/C [28]: 31.8%; viability, T/C [17]: 0.29%; viability, T/C [18]: 0.25%; viability, T/C [19]: 0.3%; viability, T/C [20]: 0.17%; viability, T/C [29]: 0.23%
COc1cc2nccc(Oc3ccc(NC(=O)C4(C(=O)Nc5ccc(F)cc5)CC4)cc3)c2cc1OC + COc1cc2nc(C)nc(NC(C)c3cc(N)cc(C(F)(F)F)c3)c2cc1OC1CCOC1	5.14	5.31	5.55	6.13	105	112	98.2	93	63.8	111	102	83.1	90.9	51.1	94.6	107	90.6	91.5	45.6	74	pIC50 (second compound 10 µM): > 7.50; viability, T/C [26]: 44.8%; viability, T/C [27]: 37.2%; viability, T/C [28]: 28.5%; viability, T/C [17]: 87%; viability, T/C [18]: 74.7%; viability, T/C [19]: 41.4%; viability, T/C [20]: 4.72%; viability, T/C [29]: 0.2%; viability, T/C [21]: 1.73%; viability, T/C [22]: 0.3%; viability, T/C [23]: 0.4%; viability, T/C [24]: 1.03%; viability, T/C [25]: 0.15%; viability, T/C (second compound 10 µM, first compound 10 µM): 0.23%
